Like-named read-outs stand apart in the source and are kept apart here.

Consider seven compounds from US20250312269A1, “ADMINISTRATION OF A P[…] BY INT[…]” (RESET PHARMACEUTICALS, INC., priority 2022, published 2025).

The nature of data set [1]: Particle size distribution (PSD) analysis by laser diffraction of feed and micronised compound. Format: physicochemical. To be noted: primary pressure of 4 bar, lens R1/R3/R5 per sample. The procedure: In order to provide a small and homogeneous particle size of psychedelic compound in the final suspensions, psilocybin and psilocin were micronised before use. Micronisation was performed by wet bead milling using decafluoropentane as the antisolvent. In a glass vial, 200 mg psychedelic compound and 2 g of 1 mm silica beads were weighed. 3 mL of the antisolvent was added for psilocybin and 2 mL for psilocin. The samples were vortexed for approximately 15 seconds then milled at 530 rpm for 60 minutes.
(§1) The micronised sample was then separated from the silica beads and transferred to a petri dish and left at room temperature to allow for evaporation of the solvent overnight (approximately 18 hours). The dried sample was then collected and characterised by PSD and XRPD.
Particle size analysis was carried out, in single analysis, by laser diffraction using a Sympatec Helos particle size analyser, equipped with a RODOS dry dispersion unit and ASPIROS feeder unit. The lens and primary pressures were varied for each compound tested.

Data set [2] in a line: Non-compartmental analysis of DMT IM bioavailability from digitised published data. Format: in vivo. The conditions noted are these: human, blood, intramuscular, 0.7 mg/kg, 0.7 mg/kg IM. The source says: (§2) DMT IM data was digitised from Kaplan et al. “Blood and urine levels of N,N-dimethyltryptamine following administration of psychoactive dosages to human subjects” Psychopharmacologia 38, 239-245 (1974). A one compartment model was used with linear absorption and clearance to describe the human IM data from Kaplan et al. 1974, and is shown schematically in FIG. 3. Mathematically, this model is a series of two linked ordinary differential equations (ODE's) given in equations (7)-(8).
The points are the mean data, and the error bars are plus and minus the SEM. Non-compartmental analysis (NCA) was run to calculate the dose normalised AUC at four dose levels. The bioavailability of the IM data was then calculated, equation (3), at all four dose levels seen in Table 2, due to the IM dose being 0.7 mg/kg the 0.4 mg/kg bioavailability values were taken and therefore bioavailability was assumed to be one for the rest of the modelling.

Data set [3] in a line: One-compartment IM PK model fitted to published DMT IM data. Also on record: species or system human. The conditions noted are these: estimate (95% CI).
Description: as §2
Constant ka is the absorption rate constant (units 1/min), Cl is the clearance (units mL/min), Vc is the volume of distribution of the central compartment (units mL).
The model gives a satisfactory fit of the absorption phase, seen in FIG. 5, where the line is the simulate PK model and the points are the raw data. The fitted PK parameters can be found in Table 3.

Data set [4] in a line: XRPD analysis after micronisation. It counts as physicochemical. The conditions noted are these: wet bead milling in decafluoropentane. As to the method:
as §1
X-ray powder diffraction (XRPD) analysis was carried out using a Bruker D2 Phaser powder diffractometer equipped with a LynxEye detector. The specimens were located at the centre of a silicon sample holder within a 5 mm pocket. The samples were continuously spun during data collection and scanned using a step size of 0.02° two theta (28) between […] to 60° two theta, the detailed parameters are summarised in Table 11. The data was processed using Diffrac Plus EVA software (Version 3.1).

The conditions of data set [5]: cited from earlier work.
The conditions of data set [6]: IV administration; cited from earlier work.
The nature of data set [7]: Solubility assessment in excipients / vehicles.
Data set [8] is described as follows: Two-compartment IV bolus PK model fitted to published psilocin plasma data after psilocybin IV. The arrangement: species or system human. The conditions noted are these: estimate (95% CI). As to the method:
All analysis was performed using the software R and RStudio, with models being defined using analytical and ODE solutions.
Systemic PK parameters were derived for published human bolus psilocybin IV data. Human IV PK data for psilocin after psilocybin was administered was taken from Hasler et al. “Determination of psilocin and 4-hydroxyindole-3-acetic acid in plasma by HPLC-ECD and pharmacokinetic profiles of oral and intravenous psilocybin in man”. Pharm Acta Helv. 1997 June; 72(3):175-84. Model selection was performed by assessing visual fit to data and the respective model AIC's of a one compartment and two compartment IV PK model. These systemic human PK parameters were then used for human intramuscular injection simulations by simulating the PK profiles over a range of doses and absorption rates.
It is assumed that the generation of psilocin is instantaneous and complete once psilocybin is absorbed.
An IV two compartment model best described the IV data from FIG. 2. A two-compartment model gave a good description of the raw data capturing the Cmax and terminal phase well, FIG. 3. The systemic PK parameters can be seen in Table 1 and there are low errors in the parameter estimates.

A short description of data set [9]: Human IM simulations of psilocin exposure, one (native) absorption rate. The conditions noted are these: 'native' absorption rate taken from DMT IM model. The procedure:
The model that was used is shown schematically in FIG. 6, mathematically the analytical solution is shown in equations (9)-(14).
Using the absorption rate from modelling the IM DMT data and the human systemic psilocin PK parameters, human IM simulations were run over 1-12 mg doses and the simulated PK profiles can be seen in FIG. 8. […] It was therefore investigated which dose produces the therapeutic plasma level (5 ng/mL) quickly, this can be seen in Table 4.

For the compound `CN(C)CCc1c[nH]c2cccc(O)c12` [Micronised psilocin, psilocin], in data set [1], the D10 amounted to 0.44 μm, the D50 was determined as 1.07 μm and the D90 amounted to 2.27 μm.
In data set [1], `CN(C)CCc1c[nH]c2cccc(OP(=O)(O)O)c12` [Feed psilocybin, psilocybin] yielded a D10 of 1.16 μm, a D50 of 5.46 μm and a D90 of 16.32 μm.
In the case of `CN(C)CCc1c[nH]c2ccccc12` [DMT, N,N-dimethyltryptamine], the bioavailability in data set [2] (AUC of IV infusion dose 0.05 mg/kg) was determined as 46.3%; in data set [2] (AUC of IV infusion dose 0.1 mg/kg), 77.8%; in [2] (AUC of IV infusion dose 0.2 mg/kg), 132%; in data set [2] (AUC of IV infusion dose 0.4 mg/kg), 162%. For the same compound, in [3] (absorption rate constant), the ka is listed as 0.153 (−0.311, 0.616) ^ /min. In addition, the CI in [3] (clearance) is listed as 21900 (4690, 39100) ml/min. Besides, in data set [3] (0.7 mg/kg IM), the V is recorded as 353000 (−397000, 1100000) ml.
Turning to `CN(C)CCc1c[nH]c2cccc(OP(=O)(O)O)c12` [psilocybin, [3-(2-dimethylaminoethyl)-1H-indol-4-yl]dihydrogen phosphate], the “chemical degradation upon micronisation (XRPD)” value in data set [4] is on record as “no significant chemical degradation”. Besides, in data set [5] (oral dosing), the duration is 4 to 8 h, the “maximum effect (time)” value is 60 to 90 min and the onset of action was 20 to 40 min. The bioavailability result in data set [5] (reported, oral dosing context) is listed as “approximately 50%”. For the same compound, in [6], the “duration of the psychological effects” value was 20 minutes and the onset of action is 1 to 2 min. Also, the “solubility in all the excipients tested” value in [7] (non-micronised, 20 excipients) is recorded as “poor solubility”.
In [1], `CN(C)CCc1c[nH]c2cccc(OP(=O)(O)O)c12` [Micronised psilocybin, psilocybin] registered a D10 of 0.45 μm, a D50 of 1.20 μm and a D90 of 3.13 μm.
In the same order, the values of `CN(C)CCc1c[nH]c2cccc(O)c12` [Feed psilocin, psilocin] are 20.36 μm, 106.05 μm and 232.08 μm.
For the compound `CN(C)CCc1c[nH]c2cccc(O)c12` [psilocin, 4-hydroxy-N,N-dimethyltryptamine], the CI in [8] (clearance, fit to 1 mg psilocybin IV data) is 3810 (3340, 4290) ml/min. In addition, the k21 in data set [8] (distribution rate from peripheral compartment) is on record as 0.0489 (0.0388, 0.0591) /min. Moreover, in [8] (distribution rate to peripheral compartment), the k12 is 0.176 (0.144, 0.208) /min. Besides, the V in [8] (volume of distribution of central compartment, fit to 1 mg psilocybin IV data) is 88600 (77300, 99900) ml. The compound also came in with an absorption half-life in data set [9] of 4.53 min. The “chemical degradation upon micronisation (XRPD)” value in [4] is on record as “no significant chemical degradation”. Moreover, the “solubility versus pH” value in data set [7] (initial solution trials in aqueous vehicles) is “higher solubility at acidic pH”. For the same compound, the “solubility in DMSO and NMP” value in data set [7] (non-micronised) is on record as “good solubility”.
